# ChEMBL document CHEMBL4118115, “Synthetic analogues of durantoside I from Citharexylum spinosum L. and their cytotoxic activity” (Bioorg Med Chem Lett, 2018)
# Experiments:
# [1] = tested on: A549; assay: Cytotoxicity against human A549 cells assessed as reduction in cell viability by Sulforhodamine B assay; format: functional, cell-based
# [2] = Cytotoxicity against rat ASK cells assessed as reduction in cell viability by Sulforhodamine B assay; format: functional, cell-based
# [3] = tested on: P388; assay: Cytotoxicity against mouse P388 cells assessed as reduction in cell viability by Sulforhodamine B assay; format: functional, cell-based
# [4] = tested on: KB; assay: Cytotoxicity against human KB cells assessed as reduction in cell viability by Sulforhodamine B assay; format: functional, cell-based
# [5] = tested on: MCF7; assay: Cytotoxicity against human MCF7 cells assessed as reduction in cell viability by Sulforhodamine B assay; format: functional, cell-based
# [6] = tested on: HEK293; assay: Cytotoxicity against HEK293 cells assessed as reduction in cell viability by Sulforhodamine B assay; format: cell-based; settings: Homo sapiens
# [7] = tested on: HT-29; assay: Cytotoxicity against human HT-29 cells assessed as reduction in cell viability by Sulforhodamine B assay; format: functional, cell-based
compound,measurement,setting,value
COC(=O)C1=CO[C@@H](O[C@H]2O[C@@H](CO[Si](c3ccccc3)(c3ccccc3)C(C)(C)C)[C@H](OC(C)=O)[C@@H](OC(C)=O)[C@@H]2OC(C)=O)[C@@H]2[C@@](C)(O)[C@@H](OC(=O)/C=C/c3ccccc3)C[C@]12O,IC50,[1],> 50 µM
same,IC50,[2],> 50 µM
same,IC50,[3],6.11 µM
same,IC50,[4],> 50 µM
same,IC50,[5],> 50 µM
same,IC50,[6],> 50 µM
same,IC50,[7],37.2 µM
COC(=O)C1=CO[C@@H](O[C@H]2O[C@@H](COC(C)=O)[C@H](OC(C)=O)[C@@H](OC(C)=O)[C@@H]2OC(C)=O)[C@@H]2[C@@](C)(O)[C@@H](OC(=O)/C=C/c3ccccc3)C[C@]12O,IC50,[1],> 50 µM
same,IC50,[2],> 50 µM
same,IC50,[3],> 50 µM
same,IC50,[4],> 50 µM
same,IC50,[5],> 50 µM
same,IC50,[6],> 50 µM
same,IC50,[7],> 50 µM
COC(=O)C1=CO[C@@H](O[C@H]2O[C@@H](CO[Si](c3ccccc3)(c3ccccc3)C(C)(C)C)[C@H](OC(C)=O)[C@@H](OC(C)=O)[C@@H]2OC(C)=O)[C@@H]2[C@@](C)(O)[C@@H](OC(C)=O)C[C@]12O,IC50,[1],8.2 µM
same,IC50,[2],9.19 µM
same,IC50,[3],3.67 µM
same,IC50,[4],14.7 µM
same,IC50,[5],9.01 µM
same,IC50,[6],7.4 µM
same,IC50,[7],35 µM
COC(=O)C1=CO[C@@H](O[C@H]2O[C@@H](CO[Si](C)(C)C(C)(C)C)[C@H](OC(C)=O)[C@@H](OC(C)=O)[C@@H]2OC(C)=O)[C@@H]2[C@@](C)(O)[C@@H](OC(=O)/C=C/c3ccccc3)C[C@]12O,IC50,[1],> 50 µM
same,IC50,[2],> 50 µM
same,IC50,[3],3.11 µM
same,IC50,[4],> 50 µM
same,IC50,[5],43.3 µM
same,IC50,[6],31.8 µM
same,IC50,[7],> 50 µM
Cc1c2ccncc2c(C)c2c1[nH]c1ccccc12 [ELLIPTECINE],IC50,[1],1.96 µM
same,IC50,[2],2.02 µM
same,IC50,[3],1.84 µM
same,IC50,[4],2.15 µM
same,IC50,[5],1.99 µM
same,IC50,[6],1.9 µM
same,IC50,[7],2 µM
COC(=O)C1=CO[C@@H](O[C@H]2O[C@@H](COC(C)=O)[C@H](OC(C)=O)[C@@H](OC(C)=O)[C@@H]2OC(C)=O)[C@@H]2[C@@](C)(OC(C)=O)[C@@H](OC(=O)/C=C/c3ccccc3)C[C@]12O,IC50,[1],> 50 µM
same,IC50,[2],> 50 µM
same,IC50,[3],> 50 µM
same,IC50,[4],> 50 µM
same,IC50,[5],> 50 µM
same,IC50,[6],45 µM
same,IC50,[7],> 50 µM
COC(=O)C1=CO[C@@H](O[C@H]2O[C@@H](CO)[C@H](O)[C@@H](O)[C@@H]2O)[C@@H]2[C@@](C)(O)[C@@H](OC(=O)/C=C/c3ccccc3)C[C@]12O,IC50,[1],> 50 µM
same,IC50,[2],> 50 µM
same,IC50,[3],> 50 µM
same,IC50,[4],> 50 µM
same,IC50,[5],> 50 µM
same,IC50,[6],> 50 µM
same,IC50,[7],> 50 µM
